Laboratory results as given in the SangsterLogP compilation.

assay: not given; settings: not given

| SMILES | logP |
| --- | --- |
| Clc1ccccc1 | 2.73 |
| O=[N+]([O-])c1cccc(O)c1 | 1.88 |
| N#Cc1ccc([N+](=O)[O-])cc1 | 1.25 |
| N#Cc1ccccc1[N+](=O)[O-] | 1.16 |

assay: not given; settings: not given; remark: another data set of the same source

| SMILES | logP |
| --- | --- |
| O=[N+]([O-])c1ccc(/C=N\O)o1 | 0.3 |
| NC(=S)N/N=C/c1ccc([N+](=O)[O-])o1 | 1.64 |
| CCS(=O)(=O)CCn1c([N+](=O)[O-])cnc1C | -0.38 |
| NC(=S)N/N=C\c1ccco1 | 1.64 |

assay: not given; settings: not given; remark: another data set of the same source

| SMILES | logP |
| --- | --- |
| CCOC(=O)CC(SP(=S)(OC)OC)C(=O)OCC (stereo not drawn) | 2.18 |
| CN(C)C(=O)Nc1ccccc1 | 1.18 |
| CCN(CC)c1nc(C)cc(OP(=S)(OC)OC)n1 | 3.8 |
| COP(=S)(OC)Oc1nc(Cl)c(Cl)cc1Cl | 3.99 |

assay: not given; settings: not given; remark: another data set of the same source

| SMILES | logP |
| --- | --- |
| COc1c(Br)cc(Br)cc1Br | 4.48 |
| Clc1ccc2c(ccc3ccccc32)c1 | 5.16 |
| CCNc1nc(Cl)nc(NC(C)C)n1 | 2.63 |
| ClC(Cl)=C(Cl)c1c(Cl)c(Cl)c(Cl)c(Cl)c1Cl | 6.29 |

assay: not given; settings: not given; remark: another data set of the same source

| SMILES | logP |
| --- | --- |
| O=C(O)c1cc(Cl)nc(Cl)c1 | 2.6 |
| O=C(O)c1cc(Br)nc(Br)c1 | 2.8 |
| O=C(O)c1nc(Cl)ccc1Cl | 1.06 |
| CCOC(=O)c1cc(Cl)nc(Cl)c1 | 3.6 |

assay: not given; settings: not given; remark: another data set of the same source

| SMILES | logP |
| --- | --- |
| OCc1ccccc1I | 2.43 |
| Fc1cccc(F)c1 | 2.33 |
| OCc1ccccc1Br | 2.08 |
| Nc1c(F)cccc1F | 1.61 |

assay: not given; settings: not given; remark: another data set of the same source

| SMILES | logP |
| --- | --- |
| CCCCCCCCCCCCN1CC(C(=O)OC)CC1=O (stereo not drawn) | 4 |
| CCCCCCN1CC(C(=O)O)CC1=O (stereo not drawn) | 1.6 |
| CN1CC(C(=O)O)CC1=O (stereo not drawn) | -1.5 |
| CCCCCCN1CCCC1=O | 2.6 |

assay: not given; settings: not given; remark: another data set of the same source

| SMILES | logP |
| --- | --- |
| CCCC(O)CC (stereo not drawn) | 1.65 |
| C[C@@H]1CCCC[C@H]1O | 1.82 |
| CCCCCCC(C)O (stereo not drawn) | 2.9 |
| CC1CCCC(C)C1O (stereo not drawn) | 2.37 |

assay: not given; settings: not given; remark: another data set of the same source

| SMILES | logP |
| --- | --- |
| COc1ccc(N)c([N+](=O)[O-])c1 | 1.86 |
| COc1cccc(Cl)c1 | 2.98 |
| COc1ccc(OC)cc1 | 2.03 |
| Cc1ccc(Cl)cc1O | 2.63 |

assay: not given; settings: not given; remark: another data set of the same source

| SMILES | logP |
| --- | --- |
| Nc1ccc(Cl)cc1N | 1.28 |
| Nc1cccc2cccnc12 | 1.79 |
| Nc1ccc(Sc2ccccc2)cc1 | 2.18 |
| COc1ccc(C)cc1N | 1.74 |

assay: method code SF-AS, from DOI: 10.1007/bf02922495; settings: not given

| SMILES | logP |
| --- | --- |
| COC(=O)/C(C#N)=C/c1ccco1 | 1.75 |
| N#CC(C#N)=Cc1ccc(Cl)o1 | 2.17 |
| COC(=O)C(C#N)=Cc1ccc(Cl)o1 | 2.4 |
| N#CC(C#N)=Cc1ccco1 | 1.5 |

assay: method code SF-RC, from DOI: 10.1002/ps.2780130506; settings: not given

| SMILES | logP |
| --- | --- |
| NC(=O)Nc1ccc(Oc2ccc(Br)cc2)cc1 | 3.7 |
| CNC(=O)ON=C(C)C | -0.13 |
| CNC(=O)O/N=C/c1ccccc1 | 1.49 |
| CNC(=O)ON=Cc1ccc(Cl)cc1 | 2.27 |

assay: method code SF, from DOI: 10.1016/j.jiec.2010.03.003; settings: not given

| SMILES | logP |
| --- | --- |
| CCC(C)(C)OC | 1.81 |
| CC(C)OC(C)C | 1.94 |
| C=COCCC | 2 |
| CCOC(C)(C)C | 1.71 |

assay: method code SF, from DOI: 10.1016/s0045-6535(97)00338-x; settings: not given

| SMILES | logP |
| --- | --- |
| CC(=O)c1cc(F)c(Cl)cc1Cl | 3.4 |
| Nc1ccc(F)cc1 | 1.18 |
| CC(=O)c1ccc(F)cc1 | 1.74 |
| Nc1ccc(F)c(F)c1F | 2.14 |

assay: method code SF-AS, from DOI: 10.1016/0378-5173(82)90004-7; settings: pH 3.0

| SMILES | logD |
| --- | --- |
| C=CCC1(C)C(=O)NC(=O)NC1=O | 0.36 |
| O=C1NC(=O)C(c2ccccc2)(c2ccccc2)C(=O)N1 | 1.96 |
| CC1(c2ccccc2)C(=O)NC(=O)NC1=O | 0.91 |
| CCC1(C)C(=O)NC(=O)NC1=O | 0.08 |

assay: method code SF, from DOI: 10.1021/js9700917, PMID: 9452977; settings: pH 5.5

| SMILES | logD |
| --- | --- |
| CC(=O)Nc1ccc(S(=O)(=O)Nc2cc(C)nc(C)n2)cc1 | -0.14 |
| NC(=S)NS(=O)(=O)c1ccc(N)cc1 | 0.52 |
| CC(=O)Nc1ccc(S(=O)(=O)Nc2nc(C)c(C)o2)cc1 | 0.46 |
| NS(=O)(=O)c1ccncn1 | -0.2 |

assay: method code SF-HPLC, from DOI: 10.1016/0378-5173(82)90005-9; settings: pH 3.0

| SMILES | logD |
| --- | --- |
| O=C1NC(=O)C2(CCCCC2)C(=O)N1 | 0.91 |
| O=C1NC(=O)C2(CCCCCCCCCC2)C(=O)N1 | 3.15 |
| O=C1NC(=O)C2(CC2)C(=O)N1 | -0.53 |
| O=C1NC(=O)C2(CCCC2)C(=O)N1 | 0.24 |

assay: method code SF-GLC, from DOI: 10.1016/s0021-9673(01)83612-8; settings: pH 13.0

| SMILES | logD |
| --- | --- |
| CNC1CCc2ccccc2C1 (stereo not drawn) | 2.38 |
| CC1Cc2ccccc2CN1 (stereo not drawn) | 1.93 |
| CC(N)CC1CCCCC1 (stereo not drawn) | 2.96 |
| CCCCCC(C)N (stereo not drawn) | 2.4 |

assay: method code SF, from DOI: 10.1021/jm00378a018, PMID: 6389865; settings: pH 7.0

| SMILES | logD |
| --- | --- |
| O=[N+]([O-])c1nccnc1NCC(O)CO (stereo not drawn) | -0.49 |
| Nc1nc(NCCO)c(Cl)nc1[N+](=O)[O-] | 0.12 |
| O=[N+]([O-])c1cnc(NC(CO)C(O)CO)cn1 (stereo not drawn) | -0.89 |
| COC(=O)c1nc(NCC(O)CO)cnc1[N+](=O)[O-] (stereo not drawn) | -0.1 |

assay: method code SF-CR+AS, from DOI: 10.1016/s0003-2670(00)84151-3; settings: not given

| SMILES | logP |
| --- | --- |
| NC(=S)c1ccc([N+](=O)[O-])cc1 | 1.75 |
| NC(=S)c1ccc(Cl)cc1 | 2.4 |
| Cc1ccc(C(N)=S)cc1 | 2.01 |
| COc1ccc(C(N)=S)cc1 | 1.63 |

assay: method code SF, from DOI: 10.1002/em.2850190108, PMID: 1732104; settings: not given

| SMILES | logP |
| --- | --- |
| O=[N+]([O-])c1cc([N+](=O)[O-])c2ccccc2c1 | 2.83 |
| O=C1Nc2ccc([N+](=O)[O-])cc2C1=O | 0.47 |
| Cc1ccc2cccc([N+](=O)[O-])c2n1 | 1.99 |
| O=[N+]([O-])c1ccc2c3c(cccc13)CC2 | 3.85 |

assay: method code SF-RC, from DOI: 10.1021/jm901332c, PMID: 19921956; settings: pH 7.4

| SMILES | logD |
| --- | --- |
| Cn1cnc2ncnc(F)c21 | -0.62 |
| Cn1cnc2ncnc(Br)c21 | 0.2 |
| Cn1cnc2c(F)ncnc21 | 0.11 |
| Cn1cnc2ncnc(Cl)c21 | 0.03 |

assay: method code SF-GLC, from DOI: 10.1007/bf00343116, PMID: 4026577; settings: not given

| SMILES | logP |
| --- | --- |
| N#CCCCCC#N | -0.32 |
| N#CCCC#N | -0.99 |
| N#CCCCCCCCCC#N | 1.75 |
| N#CCCCC#N | -0.72 |

assay: method code SF-HPLC, from DOI: 10.1007/bf00269028, PMID: 6488439; settings: not given

| SMILES | logP |
| --- | --- |
| Nc1ccn([C@@H]2O[C@@H]3CO[C@H]2[C@@H]3O)c(=O)n1 | -1.64 |
| Nc1ccn(C2OC(CCl)C(O)C2O)c(=O)n1 (stereo not drawn) | -1.05 |
| Cc1c[nH]c(=O)[nH]c1=O | -0.57 |
| Nc1cc[nH]c(=O)n1 | -1.49 |

assay: method code SF-AS, from DOI: 10.1007/s001289900158, PMID: 8661463; settings: not given

| SMILES | logP |
| --- | --- |
| Clc1ccc(Cl)nn1 | 0.93 |
| NNc1nc(NN)nc(Nc2ccccc2)n1 | 1.07 |
| O=[N+]([O-])c1c(Cl)ncnc1Cl | 0.45 |
| O=[N+]([O-])c1ccc(Cl)nc1Cl | 1.96 |

assay: method code SF-HPLC, from DOI: 10.1002/jps.2600750520, PMID: 3735094; settings: pH 4.0

| SMILES | logD |
| --- | --- |
| CCCCOC(=O)n1cc(F)c(=O)[nH]c1=O | 0.89 |
| CC(C)COC(=O)n1cc(F)c(=O)[nH]c1=O | 0.87 |
| COC(=O)n1cc(F)c(=O)[nH]c1=O | -0.68 |
| CCOC(=O)n1cc(F)c(=O)[nH]c1=O | -0.17 |

assay: method code SF-AS, from DOI: 10.1002/1521-3838(200111)20:4<291::aid-qsar291>3.0.co;2-q; settings: not given

| SMILES | logP |
| --- | --- |
| S=c1[nH]nc(-c2ccccc2Cl)o1 | 3.36 |

assay: method code SF-AS, from Ganga, L. X. J. S., & Zun-Yaob, L. H. W. (2009). Determination of lgKow and QSPR Study on Some Fluorobenzene Derivatives. Jiegou Huaxue, 28(10).; settings: not given

| SMILES | logP |
| --- | --- |
| Fc1ccc(F)c(F)c1 | 2.34 |
| Fc1ccccc1F | 2.1 |
| Fc1cc(F)c(F)cc1F | 2.44 |
| Oc1ccc(F)cc1F | 1.9 |

assay: method code SF-GLC, from Boikov, Yu.; Shibaev, V.; Gaidamaka, V.; V'yunov, K. (1989). Study of correlation between extraction characteristics of glycidyl ethers and theri structure. 62(1)177-179.; settings: not given

| SMILES | logP |
| --- | --- |
| CCCOCC1CO1 (stereo not drawn) | 0.5 |
| CC(C)OCC1CO1 (stereo not drawn) | 0.8 |
| CCCCOCC1CO1 (stereo not drawn) | 0.55 |
| COCC1CO1 (stereo not drawn) | 0.03 |
